Source: PubChem BioAssay AID248 (DTP/NCI, 2004)
Where “and” joins values, the source holds several entries; their conditions need not be identical. Equal entries are not always repeated. Toxic doses and inconclusive results are not listed. No stated cut-off is given here; in the data, active means T/C of 150% or more; inactive means T/C below 125%.

System: L1210 leukemia ip in BDF1 mice, survival T/C
Assay: NCI In Vivo Anticancer Drug Screen. Data for tumor model L1210 Leukemia (intraperitoneal) in B6D2F1 (BDF1) mice
Details: endpoint: mean survival time, higher = longer survival
Outline: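 Mice bearing the transplanted tumor received compound or vehicle. Survival of the treated group was divided by that of the vehicle-treated control group to give the ratio.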

[1] = dose: 100.0 mg/kg/injection, schedule: Q04DX002 (ip), vehicle: Klucel (hydroxypropylcellulose) (HPC)
[2] = dose: 200.0 mg/kg/injection, schedule: Q04DX002 (ip), vehicle: Klucel (hydroxypropylcellulose) (HPC)
[3] = dose: 50.0 mg/kg/injection, schedule: Q01DX009 (ip), vehicle: Klucel (hydroxypropylcellulose) (HPC)
[4] = dose: 100.0 mg/kg/injection, schedule: Q01DX009 (ip), vehicle: Klucel (hydroxypropylcellulose) (HPC)
[5] = dose: 100.0 mg/kg/injection, schedule: Q01DX001 (ip), vehicle: saline
[6] = dose: 200.0 mg/kg/injection, schedule: Q01DX001 (ip), vehicle: saline
[7] = dose: 400.0 mg/kg/injection, schedule: Q01DX001 (ip), vehicle: saline
[8] = dose: 50.0 mg/kg/injection, schedule: Q01DX001 (ip), vehicle: saline
[9] = dose: 100.0 mg/kg/injection, schedule: Q04DX003 (ip), vehicle: Klucel (hydroxypropylcellulose) (HPC)
[10] = dose: 100.0 mg/kg/injection, schedule: Q04DX003 (ip), vehicle: saline with Tween-80
[11] = dose: 200.0 mg/kg/injection, schedule: Q04DX003 (ip), vehicle: saline with Tween-80
[12] = dose: 400.0 mg/kg/injection, schedule: Q04DX003 (ip), vehicle: saline with Tween-80
[13] = dose: 100.0 mg/kg/injection, schedule: Q01DX001 (ip), vehicle: saline with Tween-80
[14] = dose: 200.0 mg/kg/injection, schedule: Q01DX001 (ip), vehicle: saline with Tween-80
[15] = dose: 400.0 mg/kg/injection, schedule: Q01DX001 (ip), vehicle: saline with Tween-80
[16] = dose: 50.0 mg/kg/injection, schedule: Q04DX002 (ip), vehicle: Klucel (hydroxypropylcellulose) (HPC)

Measured: T/C

C=CCCC(=O)OC(C)(C)C
inactive: dose: 25.0 mg/kg/injection, schedule: Q01DX009 (ip), vehicle: water 96 % of control | dose: 50.0 mg/kg/injection, schedule: Q01DX009 (ip), vehicle: water 96 % of control | dose: 100.0 mg/kg/injection, schedule: Q01DX009 (ip), vehicle: water 98 % of control | dose: 200.0 mg/kg/injection, schedule: Q01DX009 (ip), vehicle: water 97 % of control

COc1cc(C(=O)NC(=S)NCc2ccncc2)cc(OC)c1OC
inactive: [1] 96 % of control | [2] 88 % of control

CCNC(C)(C)C(SSSC(c1ccc(Cl)cc1)C(C)(C)NCC)c1ccc(Cl)cc1 (stereo unspecified)
inactive: [3] 94 % of control | [4] 91 % of control | dose: 100.0 mg/kg/injection, schedule: Q01DX009 (ip), vehicle: other 89 % of control

COC1OCC2OC(C)(C)OC2C1OS(C)(=O)=O (stereo unspecified)
inactive: [5] 107 % of control | [6] 112 % of control | [7] 97 % of control

NC(=O)C(c1ccccc1)N1CCOCC1 (stereo unspecified)
inactive: dose: 50.0 mg/kg/injection, schedule: Q04DX003 (ip), vehicle: saline 106 % of control | dose: 100.0 mg/kg/injection, schedule: Q04DX003 (ip), vehicle: saline 102 % of control | dose: 200.0 mg/kg/injection, schedule: Q04DX003 (ip), vehicle: saline 104 % of control | dose: 400.0 mg/kg/injection, schedule: Q04DX003 (ip), vehicle: saline 102 % of control

CC1(C)N=C(N)N=C(N)N1c1cccc(OCCOc2cccc(N)c2)c1
inactive: dose: 5.0 mg/kg/injection, schedule: Q01DX001 (ip), vehicle: saline 91 % of control | dose: 10.0 mg/kg/injection, schedule: Q01DX001 (ip), vehicle: saline 92 % of control | dose: 20.0 mg/kg/injection, schedule: Q01DX001 (ip), vehicle: saline 94 % of control | dose: 40.0 mg/kg/injection, schedule: Q01DX001 (ip), vehicle: saline 89 % of control | dose: 100.0 mg/kg/injection, schedule: Q01DX001 (ip), vehicle: Klucel (hydroxypropylcellulose) (HPC) 106 % of control

Cc1cc(Nc2ncnc(Cl)c2N)ccc1N
inactive: dose: 100.0 mg/kg/injection, schedule: Q01DX001 (ip), vehicle: carboxymethylcellulose (CMC) 93 % of control | dose: 200.0 mg/kg/injection, schedule: Q01DX001 (ip), vehicle: carboxymethylcellulose (CMC) 98 % of control | dose: 400.0 mg/kg/injection, schedule: Q01DX001 (ip), vehicle: carboxymethylcellulose (CMC) 96 % of control

O=C1NC(=O)C(c2ccc(C(=O)O)cc2)N1 (stereo unspecified)
inactive: [8] 107 % of control | [5] 105 % of control | [6] 100 % of control | [7] 96 % of control

O=C(O)c1ccc(CBr)c(CBr)c1
inactive: dose: 6.25 mg/kg/injection, schedule: Q04DX003 (ip), vehicle: saline with Tween-80 93 % of control | dose: 12.5 mg/kg/injection, schedule: Q04DX003 (ip), vehicle: saline with Tween-80 94 % of control

COc1ccc2c(c1)CCC1C2CCC2(C)C1CCC21CCNP(=O)(N(CCCl)CCCl)O1 (stereo unspecified)
inactive: [9] 101 % of control | dose: 200.0 mg/kg/injection, schedule: Q04DX003 (ip), vehicle: Klucel (hydroxypropylcellulose) (HPC) 103 % of control | dose: 400.0 mg/kg/injection, schedule: Q04DX003 (ip), vehicle: Klucel (hydroxypropylcellulose) (HPC) 92 % of control

O=c1[nH]c(=O)n(Cc2ccccc2)cc1Cc1ccccc1
inactive: [10] 106 % of control | [11] 98 % of control | [12] 101 % of control

CC(=O)Nc1cc([N+](=O)[O-])ccc1OCc1ccccc1
inactive: [8] 92 % of control | [5] 91 % of control | [6] 88 % of control | [7] 97 % of control

COc1cccc(/C(C)=N\Nc2ccc([N+](=O)[O-])cc2[N+](=O)[O-])c1OC
inactive: dose: 50.0 mg/kg/injection, schedule: Q01DX009 (ip), vehicle: saline 92 % of control | dose: 100.0 mg/kg/injection, schedule: Q01DX009 (ip), vehicle: saline 90 % of control | [10] 94 % of control and 96 % of control | [11] 87 % of control | [12] 86 % of control and 92 % of control

CCC(=O)Nc1cccc(OC(=O)NC(C)(C)C)c1
inactive: [10] 90 % of control | [11] 90 % of control | [12] 89 % of control

[CH3][Pb]([CH3])([CH3])[O]C(=O)c1ccc([N+](=O)[O-])cc1
inactive: dose: 12.5 mg/kg/injection, schedule: Q04DX002 (ip), vehicle: Klucel (hydroxypropylcellulose) (HPC) 97 % of control

O=C(CC1(Cl)C(F)(F)C(F)(F)C1(F)F)c1ccccc1
inactive: dose: 6.25 mg/kg/injection, schedule: Q01DX009 (ip), vehicle: saline 94 % of control | dose: 12.5 mg/kg/injection, schedule: Q01DX009 (ip), vehicle: saline 94 % of control | dose: 25.0 mg/kg/injection, schedule: Q01DX009 (ip), vehicle: saline with Tween-80 94 % of control | dose: 25.0 mg/kg/injection, schedule: Q01DX009 (ip), vehicle: saline 100 % of control

CC1(C)c2ccccc2N(CCCN)c2ccccc21
inactive: dose: 3.25 mg/kg/injection, schedule: Q01DX001 (ip), vehicle: saline 93 % of control | dose: 6.5 mg/kg/injection, schedule: Q01DX001 (ip), vehicle: saline 93 % of control | dose: 13.0 mg/kg/injection, schedule: Q01DX001 (ip), vehicle: saline 96 % of control | [8] 95 % of control | [5] 106 % of control

O=C(Nc1ccc(N=C(c2ccccc2)N2CCOCC2)cc1)c1ccc(C(=O)Nc2ccc(N=C(c3ccccc3)N3CCOCC3)cc2)cc1
inactive: dose: 62.0 mg/kg/injection, schedule: Q01DX Z (ip), vehicle: carboxymethylcellulose (CMC) 92 % of control | dose: 125.0 mg/kg/injection, schedule: Q01DX Z (ip), vehicle: carboxymethylcellulose (CMC) 86 % of control | dose: 250.0 mg/kg/injection, schedule: Q01DX Z (ip), vehicle: carboxymethylcellulose (CMC) 91 % of control

O=C1C=CC(=O)C2C3c4ccccc4C(c4ccccc43)C12 (stereo unspecified)
inactive: [13] 93 % of control | dose: 100.0 mg/kg/injection, schedule: Q04DX002 (ip), vehicle: saline 93 % of control | [14] 108 % of control | dose: 200.0 mg/kg/injection, schedule: Q04DX002 (ip), vehicle: saline 101 % of control | [15] 100 % of control | dose: 400.0 mg/kg/injection, schedule: Q04DX002 (ip), vehicle: saline 90 % of control

CC(C)=NNc1ccc([N+](=O)[O-])cc1[N+](=O)[O-]
inactive: [16] 100 % of control | [1] 94 % of control and 107 % of control | [2] 102 % of control | dose: 400.0 mg/kg/injection, schedule: Q04DX002 (ip), vehicle: Klucel (hydroxypropylcellulose) (HPC) 100 % of control and 105 % of control

NNC(=O)c1cccs1
inactive: dose: 25.0 mg/kg/injection, schedule: Q01DX009 (ip), vehicle: Klucel (hydroxypropylcellulose) (HPC) 100 % of control | dose: 25.0 mg/kg/injection, schedule: Q04DX003 (ip), vehicle: Klucel (hydroxypropylcellulose) (HPC) 95 % of control | dose: 50.0 mg/kg/injection, schedule: Q01DX001 (ip), vehicle: carboxymethylcellulose (CMC) 100 % of control | [3] 103 % of control | dose: 50.0 mg/kg/injection, schedule: Q04DX003 (ip), vehicle: Klucel (hydroxypropylcellulose) (HPC) 95 % of control | [9] 101 % of control

CCCC(=O)Nc1cc(OC)ccc1OC
inactive: [4] 106 % of control | dose: 200.0 mg/kg/injection, schedule: Q01DX009 (ip), vehicle: Klucel (hydroxypropylcellulose) (HPC) 97 % of control

c1cc(-c2ccc(C3=NCCN3)cc2)ccc1C1=NCCN1
inactive: dose: 15.0 mg/kg/injection, schedule: Q01DX Z (ip), vehicle: saline 104 % of control | dose: 30.0 mg/kg/injection, schedule: Q01DX Z (ip), vehicle: saline 104 % of control | dose: 60.0 mg/kg/injection, schedule: Q01DX Z (ip), vehicle: saline 87 % of control

O=C(/C=C/c1ccncc1)Nc1ccccc1
inactive: dose: 25.0 mg/kg/injection, schedule: Q04DX002 (ip), vehicle: Klucel (hydroxypropylcellulose) (HPC) 117 % of control | [16] 98 % of control | [1] 98 % of control

O=C(C[n+]1ccccc1)CC(O)(C(F)(F)F)C(F)(F)F
inactive: [10] 104 % of control | [11] 103 % of control | [12] 98 % of control

Fc1ccc(CC(F)(F)F)cc1
inactive: [13] 97 % of control | [14] 105 % of control | [15] 98 % of control
